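Growth conditions: 96-well plates. Treatment: test compound, 48 hours, 5 concentrations. Analysis: linear interpolation between bracketing concentrations; unreached endpoints set to highest concentration. The concentration for 50% growth inhibition is given as GI50.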 Activity calls are given as the source filed them. Rule as the data show it: active = GI50 up to about 1.1 µM and inactive = higher.
Columns and labels:
Assay in all cases: DTP human tumour cell line panel, 48 h
KM12 = test system: KM12
MOLT-4 = test system: MOLT-4
U-251 = test system: U-251
HL-60 = test system: HL-60
OVCAR-4 = test system: OVCAR-4
786-0 = test system: 786-0
SF-539 = test system: SF-539
NCI-H522 = test system: NCI-H522
UACC-62 = test system: UACC-62
CAKI-1 = test system: CAKI-1
CCRF-CEM = test system: CCRF-CEM
SK-MEL-5 = test system: SK-MEL-5
SN12C = test system: SN12C
TK-10 = test system: TK-10
HT-29 = test system: HT-29
SK-OV-3 = test system: SK-OV-3
UO-31 = test system: UO-31
NCI-H23 = test system: NCI-H23
OVCAR-3 = test system: OVCAR-3
SNB-75 = test system: SNB-75

Structure (SMILES)	GI50 (KM12)	GI50 (MOLT-4)	GI50 (U-251)	GI50 (HL-60)	GI50 (OVCAR-4)	GI50 (786-0)	GI50 (SF-539)	GI50 (NCI-H522)	GI50 (UACC-62)	GI50 (CAKI-1)	GI50 (CCRF-CEM)	GI50 (SK-MEL-5)	GI50 (SN12C)	GI50 (TK-10)	GI50 (HT-29)	GI50 (SK-OV-3)	GI50 (UO-31)	GI50 (NCI-H23)	GI50 (OVCAR-3)	GI50 (SNB-75)
O=P1(O)c2ccccc2CS(=O)(=O)Cc2ccccc21	> 100 µM (inactive)	> 100 µM (inactive)	> 100 µM (inactive)	> 100 µM (inactive)	> 100 µM (inactive)	> 100 µM (inactive)	> 100 µM (inactive)	> 100 µM (inactive)	> 100 µM (inactive)	> 100 µM (inactive)	> 100 µM (inactive)	> 100 µM (inactive)	> 100 µM (inactive)	> 100 µM (inactive)	> 100 µM (inactive)	> 100 µM (inactive)	> 100 µM (inactive)	> 100 µM (inactive)	> 100 µM (inactive)	–
BrP(NC1CCCCCC1)(c1ccccc1)(c1ccccc1)c1ccccc1	0.873 µM (active)	–	3.55 µM (inactive)	1.9 µM (inactive)	–	7.53 µM (inactive)	14.1 µM (inactive)	2.23 µM (inactive)	3.03 µM (inactive)	3.98 µM (inactive)	2.97 µM (inactive)	1.59 µM (inactive)	5.06 µM (inactive)	6.58 µM (inactive)	2.1 µM (inactive)	–	4.25 µM (inactive)	5.12 µM (inactive)	3.38 µM (inactive)	–
COc1ccc2c(c1)OCCC1=C2SCC2(C)CCN=C12 (configuration not stated)	> 100 µM (inactive)	52 µM (inactive)	> 100 µM (inactive)	29 µM (inactive)	> 100 µM (inactive)	> 100 µM (inactive)	> 100 µM (inactive)	> 100 µM (inactive)	> 100 µM (inactive)	–	> 100 µM (inactive)	46.5 µM (inactive)	> 100 µM (inactive)	> 100 µM (inactive)	55.2 µM (inactive)	> 100 µM (inactive)	–	61.7 µM (inactive)	72.6 µM (inactive)	> 100 µM (inactive)
C=C1Oc2nc3ccccc3c(=O)n2C1(C)C	> 10 µM (inactive)	> 100 µM (inactive)	> 100 µM (inactive)	> 100 µM (inactive)	> 100 µM (inactive)	> 100 µM (inactive)	> 100 µM (inactive)	> 100 µM (inactive)	> 100 µM (inactive)	> 100 µM (inactive)	> 100 µM (inactive)	> 100 µM (inactive)	> 100 µM (inactive)	> 100 µM (inactive)	> 100 µM (inactive)	> 100 µM (inactive)	> 100 µM (inactive)	> 100 µM (inactive)	> 10 µM (inactive)	–
CSC(=N)N1N=C2/C(=C/c3ccccc3)CCC[C@H]2[C@H]1c1ccccc1	9.84 µM (inactive)	2.69 µM (inactive)	12 µM (inactive)	1.72 µM (inactive)	2.58 µM (inactive)	5.47 µM (inactive)	6.58 µM (inactive)	4.23 µM (inactive)	10.9 µM (inactive)	–	2.6 µM (inactive)	–	3.92 µM (inactive)	12.7 µM (inactive)	2.07 µM (inactive)	3.68 µM (inactive)	3.4 µM (inactive)	4.88 µM (inactive)	10.6 µM (inactive)	–
CC(=O)/C=C1\CC(=O)N(C)c2ccccc2N1	> 100 µM (inactive)	> 100 µM (inactive)	> 100 µM (inactive)	–	> 100 µM (inactive)	> 100 µM (inactive)	> 100 µM (inactive)	> 100 µM (inactive)	> 100 µM (inactive)	> 100 µM (inactive)	> 100 µM (inactive)	0.57 µM (active)	> 100 µM (inactive)	> 100 µM (inactive)	> 100 µM (inactive)	> 100 µM (inactive)	> 100 µM (inactive)	> 100 µM (inactive)	> 100 µM (inactive)	0.0723 µM (active)
O=C1N(C2CCCCC2)CC12CCCCC2	–	> 100 µM (inactive)	> 100 µM (inactive)	41.2 µM (inactive)	> 100 µM (inactive)	> 100 µM (inactive)	> 100 µM (inactive)	> 100 µM (inactive)	> 100 µM (inactive)	–	> 100 µM (inactive)	> 100 µM (inactive)	> 100 µM (inactive)	> 100 µM (inactive)	–	> 100 µM (inactive)	> 100 µM (inactive)	> 100 µM (inactive)	–	> 100 µM (inactive)
c1ccc2c(c1)nnn2CNc1ccc(N2CCOCC2)cc1	> 100 µM (inactive)	> 100 µM (inactive)	> 100 µM (inactive)	33.3 µM (inactive)	> 100 µM (inactive)	> 100 µM (inactive)	> 100 µM (inactive)	> 100 µM (inactive)	> 100 µM (inactive)	–	> 100 µM (inactive)	–	> 100 µM (inactive)	> 100 µM (inactive)	> 100 µM (inactive)	> 100 µM (inactive)	> 100 µM (inactive)	> 100 µM (inactive)	> 100 µM (inactive)	> 100 µM (inactive)
N#C/N=[N+](\[O-])c1ccc(C(=O)O)cc1	> 100 µM (inactive)	–	19 µM (inactive)	< 0.01 µM (active)	21 µM (inactive)	–	16.3 µM (inactive)	19.5 µM (inactive)	17.4 µM (inactive)	–	32.7 µM (inactive)	–	–	17.5 µM (inactive)	20.3 µM (inactive)	18.6 µM (inactive)	16.6 µM (inactive)	17.7 µM (inactive)	15.2 µM (inactive)	23.1 µM (inactive)
COc1ccc2c(OC)c3ccoc3nc2c1O	> 100 µM (inactive)	42.2 µM (inactive)	> 100 µM (inactive)	–	> 100 µM (inactive)	> 100 µM (inactive)	> 100 µM (inactive)	> 100 µM (inactive)	77.8 µM (inactive)	93.3 µM (inactive)	43.3 µM (inactive)	> 100 µM (inactive)	> 100 µM (inactive)	> 100 µM (inactive)	> 100 µM (inactive)	> 100 µM (inactive)	63.1 µM (inactive)	> 100 µM (inactive)	> 100 µM (inactive)	86.9 µM (inactive)
CCOC(=O)c1ccc(C(=O)n2ccnc2)[nH]1	> 100 µM (inactive)	> 100 µM (inactive)	> 100 µM (inactive)	> 100 µM (inactive)	84.3 µM (inactive)	> 100 µM (inactive)	–	> 100 µM (inactive)	> 100 µM (inactive)	> 100 µM (inactive)	> 100 µM (inactive)	> 100 µM (inactive)	> 100 µM (inactive)	> 100 µM (inactive)	–	–	> 100 µM (inactive)	> 100 µM (inactive)	> 100 µM (inactive)	63.5 µM (inactive)
CC(C)=CCN1c2ccc(Cl)cc2NC(=O)CC1C (configuration not stated)	28.3 µM (inactive)	48.4 µM (inactive)	27.5 µM (inactive)	13 µM (inactive)	22 µM (inactive)	18.2 µM (inactive)	20.5 µM (inactive)	12 µM (inactive)	–	15.8 µM (inactive)	38.6 µM (inactive)	18 µM (inactive)	19.6 µM (inactive)	35.2 µM (inactive)	17.5 µM (inactive)	34.7 µM (inactive)	31.6 µM (inactive)	22.6 µM (inactive)	18.3 µM (inactive)	–
CCOC(=O)CC[C@H](NC(=O)c1nc[nH]c1/N=N/N(C)C)C(=O)OCC	> 100 µM (inactive)	> 100 µM (inactive)	> 100 µM (inactive)	> 100 µM (inactive)	> 100 µM (inactive)	> 100 µM (inactive)	> 100 µM (inactive)	> 100 µM (inactive)	> 100 µM (inactive)	> 100 µM (inactive)	> 100 µM (inactive)	> 100 µM (inactive)	> 100 µM (inactive)	–	> 100 µM (inactive)	> 100 µM (inactive)	> 100 µM (inactive)	> 100 µM (inactive)	> 100 µM (inactive)	–
CN(C)/N=C(/c1nc2ccc(Cl)cc2nc1O)C(O)c1ccc(C(O)/C(=N\N(C)C)c2nc3ccc(Cl)cc3nc2O)cc1 (configuration not stated)	> 100 µM (inactive)	52.4 µM (inactive)	–	27.9 µM (inactive)	> 100 µM (inactive)	> 100 µM (inactive)	> 100 µM (inactive)	> 100 µM (inactive)	> 100 µM (inactive)	> 100 µM (inactive)	6.43 µM (inactive)	> 100 µM (inactive)	> 100 µM (inactive)	> 100 µM (inactive)	> 100 µM (inactive)	> 100 µM (inactive)	> 100 µM (inactive)	> 100 µM (inactive)	> 100 µM (inactive)	–
C(=C\c1csnn1)/c1cccnc1	> 100 µM (inactive)	> 100 µM (inactive)	> 100 µM (inactive)	> 100 µM (inactive)	> 100 µM (inactive)	> 100 µM (inactive)	> 100 µM (inactive)	> 100 µM (inactive)	–	–	–	–	> 100 µM (inactive)	> 100 µM (inactive)	> 100 µM (inactive)	> 100 µM (inactive)	> 100 µM (inactive)	> 100 µM (inactive)	> 100 µM (inactive)	> 100 µM (inactive)
CSc1nc2nc(C)c(C)nc2c(=O)[nH]1	> 100 µM (inactive)	51.2 µM (inactive)	> 100 µM (inactive)	> 100 µM (inactive)	> 100 µM (inactive)	> 100 µM (inactive)	–	> 100 µM (inactive)	> 100 µM (inactive)	> 100 µM (inactive)	> 100 µM (inactive)	> 100 µM (inactive)	> 100 µM (inactive)	> 100 µM (inactive)	> 100 µM (inactive)	> 100 µM (inactive)	> 100 µM (inactive)	> 100 µM (inactive)	> 100 µM (inactive)	> 100 µM (inactive)

— ChEMBL document CHEMBL1201862, “PubChem BioAssay data set” (2004)
